≈ marks a conversion by molar mass, not a printed value. Each block holds one compound with its values, some of them ahead of it.
Key:
[1] = test system: C. parapsilosis Synlab 406; assay: MIC, CLSI M27 broth microdilution; format: cell-based, Candida parapsilosis; conditions: C. parapsilosis Synlab 406, EOs and terpenes
From the text: (§1) The fungal strains used in this study were C. albicans ATCC 10231, C. albicans ATCC 64550, C. parapsilosis ATCC 22019, C. tropicalis ATCC 750, C. tropicalis ATCC 200956 (resistant to azoles and AMB), C. glabrata LMDM 34 (resistant to echinocandins), C. metapsilosis MUM 15.12, C. orthopsilosis MUM 17.13, C. lusitaniae MUM 17.08, C. krusei ATCC 6258 (Issatchenkia orientalis ATCC 6258), and C. auris CDC B11903. Additionally, nine clinical isolates were included: C. parapsilosis Synlab 406 (FLC-resistant) and eight C. auris isolates identified by MALDI-TOF MS (Bruker Daltonics, Bremen, Germany) according to Zhao et al.. These yeasts were cultured on Sabouraud Dextrose Agar (SDA; Sigma-Aldrich, St. Louis, MO, USA) for 24 h at 35 °C.
(§2) Antifungal susceptibility testing was performed according to Clinical and Laboratory Standards Institute M27, 4th Edition (CLSI standard M27, 4th Edition). Some modifications were applied for evaluation of the antifungal activity of EOs and terpenes. Initially, a screening was carried out to determine the antifungal activity of the EOs and of commercial terpenes. Stock concentrations of EOs and terpenes were prepared at 512 µg/mL and an inoculum of 2.5 × 10^3 CFU/mL of each yeast was prepared in RPMI 1640-MOPS (Sigma- Aldrich St. Louis, MO, USA). Thereafter, 100 µL of each stock solution of EOs or terpenes was dispensed in 96-well microdilution plates (Corning®, Costar®, NY, USA) and 100 µL of each yeast inoculum was added. […] Microdilution plates were incubated at 35 °C and, after 24 h, the presence or absence of growth was visually checked using a manual mirror viewer and then compared with the amount of growth in the control (no EO or terpene). Compounds able to inhibit yeast growth were tested to determine the minimal inhibitory concentration (MIC) as follows: 100 µL of 10 two-fold dilutions of the EOs or commercial terpenes was dispensed in 96-well microplates and the yeast inoculum was added. Final concentrations of the EOs or terpenes ranged from 0.5 µg/mL to 256 µg/mL. Microdilution plates were incubated at 35 °C for 24 h. MICs were visually determined at the lowest concentration that produced visual inhibition compared to the growth control. The assays were performed at least three times in duplicate on different days. The results were expressed as geometric means (GM) and ranges. As an antifungal susceptibility testing control, the activity of ITC and AMB against the reference strains C. krusei ATCC 6258 and C. parapsilosis ATCC 22019 was evaluated in all experiments following the CLSI standard M27, 4th Edition. It was mandatory that the MIC values remained in the accepted range.

C. lusitaniae MUM 17.08 = assay: MIC, CLSI M27 broth microdilution; format: cell-based, Candida lusitaniae; conditions: C. lusitaniae MUM 17.08, EOs and terpenes
From the text: as §1, §2

[2] = test system: C. metapsilosis MUM 15.12; assay: MIC, CLSI M27 broth microdilution; format: cell-based, Candida metapsilosis; conditions: C. metapsilosis MUM 17.13 (Table 3), EOs and terpenes, 24 h, top concentration 256 µg/mL
From the text: as §1, §2

[3] = test system: C. tropicalis ATCC 200956; assay: MIC, CLSI M27 broth microdilution; format: cell-based, Candida tropicalis; conditions: C. tropicalis ATCC 200956, EOs and terpenes
From the text: as §1, §2

[4] = test system: C. orthopsilosis MUM 17.13; assay: MIC, CLSI M27 broth microdilution; format: cell-based, Candida orthopsilosis; conditions: C. orthopsilosis MUM 15.12 (Table 3), EOs and terpenes, 24 h, top concentration 256 µg/mL
From the text: as §1, §2

C. auris Ca 32 = assay: MIC, CLSI M27 broth microdilution; format: cell-based, Candida auris; conditions: C. auris Ca 32, EOs and terpenes
From the text: as §1, §2

C. auris Ca 13 = assay: MIC, CLSI M27 broth microdilution; format: cell-based, Candida auris; conditions: C. auris Ca 13, EOs and terpenes
From the text: as §1, §2

C. auris CDC B11903 = assay: MIC, CLSI M27 broth microdilution; format: cell-based, Candida auris; conditions: C. auris CDC B11903, EOs and terpenes, 24 h, top concentration 256 µg/mL
From the text: as §1, §2

C. auris Ca 9 = assay: MIC, CLSI M27 broth microdilution; format: cell-based, Candida auris; conditions: C. auris Ca 9, EOs and terpenes
From the text: as §1, §2

C. auris Ca 45 = assay: MIC, CLSI M27 broth microdilution; format: cell-based, Candida auris; conditions: C. auris Ca 45, EOs and terpenes, 24 h, top concentration 256 µg/mL
From the text: as §1, §2

C. auris Ca 17 = assay: MIC, CLSI M27 broth microdilution; format: cell-based, Candida auris; conditions: C. auris Ca 17, EOs and terpenes, 24 h, top concentration 256 µg/mL
From the text: as §1, §2

C. auris Ca 41 = assay: MIC, CLSI M27 broth microdilution; format: cell-based, Candida auris; conditions: C. auris Ca 41, EOs and terpenes, 24 h, top concentration 256 µg/mL
From the text: as §1, §2

C. auris Ca 1 = assay: MIC, CLSI M27 broth microdilution; format: cell-based, Candida auris; conditions: C. auris Ca 1, EOs and terpenes, 24 h, top concentration 256 µg/mL
From the text: as §1, §2

C. auris Ca 46 = assay: MIC, CLSI M27 broth microdilution; format: cell-based, Candida auris; conditions: C. auris Ca 46, EOs and terpenes, 24 h, top concentration 256 µg/mL
From the text: as §1, §2

in vitro = conditions: human
Description: (§4) Cells were cultured in Dulbecco’s Modified Eagle Medium (DMEM; Sigma-Aldrich, St. Louis, MO, USA) supplemented with 10% fetal bovine serum (Invitrogen, Carlsbad, CA, USA), 1% penicillin, streptomycin, and neomycin (Invitrogen, Carlsbad, CA, USA), and 1% L-glutamine (Invitrogen, Carlsbad, CA, USA) at 37 °C in a humidified atmosphere of 5% CO2. […] Afterwards, the culture medium was removed and 3-(4.5-dimethylthiazol-2-yl)-2.5-diphenyltetrazolium bromide (MTT) (Sigma-Aldrich, St. Louis, MO, USA) at 5 mg/mL was added at 37 °C for 2 h. Subsequently, DMSO was added to dissolve the formazan crystals. Finally, the absorbances were measured with a Multiskan SkyHigh Microplate Spectrophotometer (Thermo Fisher Scientific, Waltham, MA, USA) at λ = 570 nm. The CC50 values were obtained by linear regression analysis with concentration–response curves, which were performed with absorbance data using GraphPad Prism software (Prism 9.3.0, San Diego, CA, USA). The assays were conducted at two separate times in triplicate. The data were expressed as means.

C. krusei ATCC 6258 = assay: MIC, CLSI M27 broth microdilution; format: cell-based, Candida krusei; conditions: C. krusei ATCC 6258; EOs and terpenes; 24 h; top concentration 256 µg/mL
From the text: as §1, §2

Candida spp. [5] = assay: Screening of antifungal activity at 256 µg/mL against twenty strains; format: cell-based; conditions: screening at 256 µg/mL
From the text: as §1
Antifungal susceptibility testing was performed according to Clinical and Laboratory Standards Institute M27, 4th Edition (CLSI standard M27, 4th Edition). Some modifications were applied for evaluation of the antifungal activity of EOs and terpenes. Initially, a screening was carried out to determine the antifungal activity of the EOs and of commercial terpenes. Stock concentrations of EOs and terpenes were prepared at 512 µg/mL and an inoculum of 2.5 × 10^3 CFU/mL of each yeast was prepared in RPMI 1640-MOPS (Sigma- Aldrich St. Louis, MO, USA). Thereafter, 100 µL of each stock solution of EOs or terpenes was dispensed in 96-well microdilution plates (Corning®, Costar®, NY, USA) and 100 µL of each yeast inoculum was added. […] MICs were visually determined at the lowest concentration that produced visual inhibition compared to the growth control. […] The results were expressed as geometric means (GM) and ranges. As an antifungal susceptibility testing control, the activity of ITC and AMB against the reference strains C. krusei ATCC 6258 and C. parapsilosis ATCC 22019 was evaluated in all experiments following the CLSI standard M27, 4th Edition. […]

Candida spp. [6] = assay: MIC, CLSI M27 broth microdilution, all Candida spp. of Tables 3 and 4 together; format: cell-based; conditions: over all strains of Table 3 and Table 4
From the text: as §1
(§3) Antifungal susceptibility testing was performed according to Clinical and Laboratory Standards Institute M27, 4th Edition (CLSI standard M27, 4th Edition). […] MICs were visually determined at the lowest concentration that produced visual inhibition compared to the growth control. […] The results were expressed as geometric means (GM) and ranges. As an antifungal susceptibility testing control, the activity of ITC and AMB against the reference strains C. krusei ATCC 6258 and C. parapsilosis ATCC 22019 was evaluated in all experiments following the CLSI standard M27, 4th Edition. […]

C. auris = assay: MIC, CLSI M27 broth microdilution, several C. auris strains together; format: cell-based, Candida auris; conditions: over all C. auris strains of Table 4
From the text: as §1, §3

HaCaT cell line = assay: Cytotoxicity, MTT assay; conditions: MTT, 24 h treatment, HaCaT keratinocytes
Description: as §4

[7] = 24 h, top concentration 256 µg/mL

- Range MIC [1]: 64 to 128 µg/mL
- MIC ([1]; Lodderomyces parapsilosis, SYNLAB406, 24 h, top concentration 256 µg/mL, read-out: GM MIC): 90.5 µg/mL (≈ 594 µM)
- Range MIC (C. lusitaniae MUM 17.08): 128 to 256 µg/mL
- MIC (C. lusitaniae MUM 17.08; Clavispora lusitaniae, MUM17.08, 24 h, top concentration 256 µg/mL, read-out: GM MIC): 181 µg/mL (≈ 1190 µM)
- MIC ([2]; Lodderomyces metapsilosis, MUM15.12, read-out: GM MIC): 256 µg/mL (≈ 1680 µM)
- Range MIC [3]: 128 to 256 µg/mL
- MIC ([3]; Candida tropicalis, ATCC200956, 24 h, top concentration 256 µg/mL, read-out: GM MIC): 181 µg/mL (≈ 1190 µM)
- MIC ([4]; Lodderomyces orthopsilosis, MUM17.13, read-out: GM MIC): 256 µg/mL (≈ 1680 µM)
- MIC (C. auris Ca 32; Candidozyma auris, CA32, 24 h, top concentration 256 µg/mL, read-out: GM MIC): 128 µg/mL (≈ 841 µM)
- MIC (C. auris Ca 13; Candidozyma auris, CA13, 24 h, top concentration 256 µg/mL, read-out: GM MIC): 256 µg/mL (≈ 1680 µM)
- MIC (C. auris CDC B11903; Candidozyma auris, CDCB11903, read-out: GM MIC): 256 µg/mL (≈ 1680 µM)
- MIC (C. auris Ca 9; Candidozyma auris, CA9, 24 h, top concentration 256 µg/mL, read-out: GM MIC): 128 µg/mL (≈ 841 µM)
- MIC (C. auris Ca 45; Candidozyma auris, CA45, read-out: GM MIC): 256 µg/mL (≈ 1680 µM)
- MIC (C. auris Ca 17; Candidozyma auris, CA17, read-out: GM MIC): 256 µg/mL (≈ 1680 µM)
- MIC (C. auris Ca 41; Candidozyma auris, CA41, read-out: GM MIC): 128 µg/mL (≈ 841 µM)
- MIC (C. auris Ca 1; Candidozyma auris, CA1, read-out: GM MIC): 256 µg/mL (≈ 1680 µM)
- MIC (C. auris Ca 46; Candidozyma auris, CA46, read-out: GM MIC): 256 µg/mL (≈ 1680 µM)
Structure (SMILES): C=C(C)[C@@H]1CC=C(CO)CC1 [Perillyl alcohol, perillyl alcohol]
- CC50 at 24 h (in vitro): 401 µg/mL (≈ 2630 µM)

Structure (SMILES): C=C(C)[C@H]1CC=C(C)CC1 [Limonene, limonene]
- GM MIC (C. krusei ATCC 6258): 32 µg/mL
- GM MIC [1, 7]: 64 µg/mL
- Range MIC (C. lusitaniae MUM 17.08): 16 to 32 µg/mL
- GM MIC (C. lusitaniae MUM 17.08; [7]): 22.6 µg/mL
- antifungal activity in screening (Candida spp. [5]): active against all tested Candida spp.
- MIC Range (Candida spp. [6]): 16 to 64 µg/mL
- MIC Range (C. auris): 16 to 64 µg/mL
- HaCaT Cells Mean CC50 (HaCaT cell line): 400.5 µg/mL
- GM MIC [2]: 64 µg/mL
- GM MIC [3, 7]: 64 µg/mL
- GM MIC [4]: 16 µg/mL
- Range MIC (C. auris Ca 32): 16 to 32 µg/mL
- GM MIC (C. auris Ca 32; [7]): 22.6 µg/mL
- Range MIC (C. auris Ca 13): 16 to 32 µg/mL
- GM MIC (C. auris Ca 13; [7]): 22.6 µg/mL
- GM MIC (C. auris CDC B11903): 64 µg/mL
- Range MIC (C. auris Ca 9): 16 to 32 µg/mL
- GM MIC (C. auris Ca 9; [7]): 22.6 µg/mL
- GM MIC (C. auris Ca 45): 16 µg/mL
- GM MIC (C. auris Ca 17): 64 µg/mL
- GM MIC (C. auris Ca 41): 16 µg/mL
- GM MIC (C. auris Ca 1): 64 µg/mL
- GM MIC (C. auris Ca 46): 16 µg/mL
